{"source": "PubChem BioAssay AID2060898", "about": "(Molecular Pharmacology Branch, DTP, NCI, 2025);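 note: spheroids exposed to agents for seven days before viability readout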;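 for viability, T/C: 100% = DMSO vehicle control viability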", "tested_on": "616215-338-R-J1-PDC complex spheroid viability", "test": "Anticancer human tumor 616215-338-R-J1-PDC patient-derived colon adenocarcinoma cell line growth inhibition [RAS]", "details": "for IC50: curve of first compound; for viability, T/C: stronger effect = lower value", "summary_of_the_method": "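Multi-cell-type spheroids: tumor cells plus HUVEC endothelial cells and mesenchymal stem cells. RAS-pathway inhibitors were combined with targeted agents, each dosed in half-log steps down from clinical Cmax, or from 10 microM when Cmax was unknown.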", "data": [{"smiles": "CCc1c2c(nc3ccc(O)cc13)-c1cc3c(c(=O)n1C2)COC(=O)[C@]3(O)CC", "note": "+ CCn1c(-c2cccnc2C(C)OC)c2c3cc(ccc31)N1CCOC(CC(NC(=O)C(C(C)C)N(C)C(=O)C3(F)CCN(C(=O)C#CC(C)(C)N(C)C)CC3)C(=O)N3CCCC(N3)C(=O)OCC(C)(C)C2)C1", "values": [{"measurement": "IC50", "setting": "second compound 0.000949 µM", "result": 15.3, "unit": "nM"}, {"measurement": "IC50", "setting": "second compound 0.003 µM", "result": 13.8, "unit": "nM"}, {"measurement": "IC50", "setting": "second compound 0.00949 µM", "result": 14.2, "unit": "nM"}, {"measurement": "IC50", "setting": "second compound 0.03 µM", "result": 16.4, "unit": "nM"}, {"measurement": "IC50", "setting": "second compound 0.0949 µM", "result": 8.04, "unit": "nM"}, {"measurement": "IC50", "setting": "second compound 0.3 µM", "result": 9.13, "unit": "nM"}, {"measurement": "viability, T/C", "setting": "second compound 0.000949 µM, first compound 0.000949 µM", "result": 105, "unit": "%"}, {"measurement": "viability, T/C", "setting": "second compound 0.000949 µM, first compound 0.003 µM", "result": 101, "unit": "%"}, {"measurement": "viability, T/C", "setting": "second compound 0.000949 µM, first compound 0.00949 µM", "result": 56.8, "unit": "%"}, {"measurement": "viability, T/C", "setting": "second compound 0.000949 µM, first compound 0.03 µM", "result": 39, "unit": "%"}, {"measurement": "viability, T/C", "setting": "second compound 0.000949 µM, first compound 0.0949 µM", "result": 32.6, "unit": "%"}, {"measurement": "viability, T/C", "setting": "second compound 0.000949 µM, first compound 0.3 µM", "result": 18.1, "unit": "%"}, {"measurement": "viability, T/C", "setting": "second compound 0.003 µM, first compound 0.000949 µM", "result": 97.9, "unit": "%"}, {"measurement": "viability, T/C", "setting": "second compound 0.003 µM, first compound 0.003 µM", "result": 99, "unit": "%"}, {"measurement": "viability, T/C", "setting": "second compound 0.003 µM, first compound 0.00949 µM", "result": 56, "unit": "%"}, {"measurement": "viability, T/C", "setting": "second compound 0.003 µM, first compound 0.03 µM", "result": 35.8, "unit": "%"}, {"measurement": "viability, T/C", "setting": "second compound 0.003 µM, first compound 0.0949 µM", "result": 30.6, "unit": "%"}, {"measurement": "viability, T/C", "setting": "second compound 0.003 µM, first compound 0.3 µM", "result": 16.6, "unit": "%"}, {"measurement": "viability, T/C", "setting": "second compound 0.00949 µM, first compound 0.000949 µM", "result": 107, "unit": "%"}, {"measurement": "viability, T/C", "setting": "second compound 0.00949 µM, first compound 0.003 µM", "result": 98.4, "unit": "%"}, {"measurement": "viability, T/C", "setting": "second compound 0.00949 µM, first compound 0.00949 µM", "result": 58.1, "unit": "%"}, {"measurement": "viability, T/C", "setting": "second compound 0.00949 µM, first compound 0.03 µM", "result": 32, "unit": "%"}, {"measurement": "viability, T/C", "setting": "second compound 0.00949 µM, first compound 0.0949 µM", "result": 30.1, "unit": "%"}, {"measurement": "viability, T/C", "setting": "second compound 0.00949 µM, first compound 0.3 µM", "result": 15.1, "unit": "%"}, {"measurement": "viability, T/C", "setting": "second compound 0.03 µM, first compound 0.000949 µM", "result": 111, "unit": "%"}, {"measurement": "viability, T/C", "setting": "second compound 0.03 µM, first compound 0.003 µM", "result": 110, "unit": "%"}, {"measurement": "viability, T/C", "setting": "second compound 0.03 µM, first compound 0.00949 µM", "result": 58.7, "unit": "%"}, {"measurement": "viability, T/C", "setting": "second compound 0.03 µM, first compound 0.03 µM", "result": 40.9, "unit": "%"}, {"measurement": "viability, T/C", "setting": "second compound 0.03 µM, first compound 0.0949 µM", "result": 30.8, "unit": "%"}, {"measurement": "viability, T/C", "setting": "second compound 0.03 µM, first compound 0.3 µM", "result": 16.4, "unit": "%"}, {"measurement": "viability, T/C", "setting": "second compound 0.0949 µM, first compound 0.000949 µM", "result": 99.9, "unit": "%"}, {"measurement": "viability, T/C", "setting": "second compound 0.0949 µM, first compound 0.003 µM", "result": 97.6, "unit": "%"}, {"measurement": "viability, T/C", "setting": "second compound 0.0949 µM, first compound 0.00949 µM", "result": 41.9, "unit": "%"}, {"measurement": "viability, T/C", "setting": "second compound 0.0949 µM, first compound 0.03 µM", "result": 33.4, "unit": "%"}, {"measurement": "viability, T/C", "setting": "second compound 0.0949 µM, first compound 0.0949 µM", "result": 30.2, "unit": "%"}, {"measurement": "viability, T/C", "setting": "second compound 0.0949 µM, first compound 0.3 µM", "result": 16.6, "unit": "%"}, {"measurement": "viability, T/C", "setting": "second compound 0.3 µM, first compound 0.000949 µM", "result": 103, "unit": "%"}, {"measurement": "viability, T/C", "setting": "second compound 0.3 µM, first compound 0.003 µM", "result": 69, "unit": "%"}, {"measurement": "viability, T/C", "setting": "second compound 0.3 µM, first compound 0.00949 µM", "result": 48.1, "unit": "%"}, {"measurement": "viability, T/C", "setting": "second compound 0.3 µM, first compound 0.03 µM", "result": 37.1, "unit": "%"}, {"measurement": "viability, T/C", "setting": "second compound 0.3 µM, first compound 0.0949 µM", "result": 26, "unit": "%"}, {"measurement": "viability, T/C", "setting": "second compound 0.3 µM, first compound 0.3 µM", "result": 14.3, "unit": "%"}]}]}
